Values joined by “and” are separate entries in the source; they are usually repeats but may differ in a detail not shown here. Equal values may be shown once. Read-outs that look alike come from different tables or passages of the source.
Key:
rats [1] = details: single dose, oral gavage, adult male Long-Evans rats; ref Crofton et al. (2011); cited from earlier work
[2] = cited from earlier work; for Clinical conc. (CC; total/maximal plasma concentration): human plasma, literature data mining, ref per-compound studies in Fig. S4; for Plasma concentration range / Plasma concentration, average: ref Laske et al. (2009)
[3] = for Free conc. (FCC; free plasma concentration): calculated from CC and plasma protein binding
[4] = head of Fig. S4 entry; compiled from in vivo/in vitro studies and simulations
whole embryo culture = tested on: whole embryo culture; parameters: method as in Piersma et al. (2008); details: ref Piersma et al. (2008); cited from earlier work
[5] = tested on: embryonic stem cell differentiation; parameters: method as in de Jong et al. 2009; details: ref de Jong et al. 2009; cited from earlier work
[6] = cited from earlier work; for Geometric mean concentration in maternal serum: ref Eskenazi et al. (2013); for Average concentration in breast milk: ref Gascon et al. (2012)
rat fetuses = tested on: rat fetuses; parameters: method as in Machera 1995; details: cleft palate and hydrocephaly as most common malformations; ref Machera 1995; cited from earlier work
zebrafish embryos = tested on: zebrafish embryos; parameters: method as in Hermsen et al. (2012); details: pericardial edema, malformations of head and heart; ref Hermsen et al. (2012); cited from earlier work
rat whole embryo culture = tested on: rat whole embryo culture; parameters: method as in Robinson et al. (2012); details: 48 hours, ref Robinson et al. (2012), cited from earlier work
dopaminergic PC12 cells = tested on: dopaminergic PC12 cells; parameters: method as in Heusinkveld et al. (2013); details: ref Heusinkveld et al. (2013); cited from earlier work
[7] = tested on: neural embryonic stem cell test (ESTn); parameters: method as in Theunissen et al. (2012); details: ref Theunissen et al. (2012); cited from earlier work
[8] = tested on: migration of hESC-derived neural crest cells (NCC); assay: MINC assay (migration inhibition of neural crest cells, UKN2); details: 48 h, in a non-cytotoxic concentration range
plasma proteins = details: cited from earlier work
fetal growth = tested on: fetal growth; parameters: method as in Govarts et al. (2012); details: per 1 µg/l increase in cord serum PCB-153; ref Govarts et al. (2012); cited from earlier work
rats [9] = details: single oral dose to dams on gestational day 6, Wistar rat; ref Kuriyama et al. (2005); cited from earlier work
[10] = tested on: mESC-derived neural stem cells (mESCn)
[11] = tested on: hESC-derived neural crest cells (NCC)
[12] = 50 patients with Alzheimer's disease

## CC(C)(C)C(O)C(Oc1ccc(Cl)cc1)n1cncn1 (stereo not drawn) [triadimenol]
Rats [1]
  Dose causing transient CNS toxicity (hyperactivity, stereotyped behavior): 50 mg/kg

## Neuregulin
[2]
  Clinical conc. (CC; total/maximal plasma concentration): 6300 nM

## COC(=O)c1ccc2c(c1)NC(=O)/C2=C(\Nc1ccc(N(C)C(=O)CN2CCN(C)CC2)cc1)c1ccccc1 [Nintedanib/ BIBF 1120, Nintedanib]
[3]
  Free conc. (FCC; free plasma concentration): 70.8 nM
[2]
  Clinical conc. (CC; total/maximal plasma concentration): 74.2 nM

## COCC(=O)O [Methoxyacetic acid]
[4]
  DT concentration: 7.5 mM
Whole embryo culture
  BMC5: 1.6 mM
[5]
  BMC50: 2.4 mM
[6]; due to permitted occupational EGME exposure, ref Welsch 2005
  Estimated human blood concentration: approximately 60 μM
[6]; head of Fig. S4 entry, ref studies in Fig. S4
  Human exposure concentration: 60 µM

## O=C(Nc1c(Cl)cncc1Cl)c1ccc(OC(F)F)c(OCC2CC2)c1 [Roflumilast]
[3]
  Free conc. (FCC; free plasma concentration): 0.2 nM
[2]
  Clinical conc. (CC; total/maximal plasma concentration): 18.0 nM

## CC(C1CC1)C(O)(Cn1cncn1)c1ccc(Cl)cc1 (stereo not drawn) [Cyproconazole]
[4]
  DT concentration: 0.065 to 0.118 mM
Rat fetuses
  Suggested NOEL: 20 mg/kg
Zebrafish embryos
  Concentration increasing teratogenic effects: 65 µM
Rat whole embryo culture; 1 mM
  Malformations: 50%
Rat whole embryo culture; 1.7 mM
  Malformations: 100%
Dopaminergic PC12 cells
  Inhibitory concentration on depolarization-evoked intracellular calcium concentration: 65 µM
[7]
  Concentration reducing cell viability to 80%: 117.6 µM
[8]
  Effect on NCC migration in concentration-response study: concentration-dependent effect

## C/C(O)=C(\C#N)C(=O)Nc1ccc(C(F)(F)F)cc1 [Teriflunomide]
[3]
  Free conc. (FCC; free plasma concentration): 54.0 nM
[2]
  Clinical conc. (CC; total/maximal plasma concentration): 10800 nM
Plasma proteins; almost constant, ref not given
  Portion of free teriflunomide: 0.5%
Plasma proteins; primarily to albumin, no unit and ref not given
  Bound to plasma proteins: > 99.3

## CN(C)CCCN1c2ccccc2Sc2ccc(Cl)cc21 [Chlorpromazine]
Plasma proteins; plasma
  Bound to plasma protein albumin: around 85%

## Clc1cc(Cl)c(-c2cc(Cl)c(Cl)cc2Cl)cc1Cl [PCB-153]
[4]
  DT concentration: 3.88e-07 mM
Fetal growth
  Reduction of birth weight: 150 g
[6]; cohort of 7990 women, ref Govarts et al. (2012)
  Median cord serum concentration: 140 ng/l and 388 pM
[6]; ref Covaci et al. (2002)
  Maternal serum concentration: 670 ± 350 pg/mL
[8]
  Effect on NCC migration in concentration-response study: concentration-dependent effect

## Brc1ccc(Oc2cc(Br)c(Br)cc2Br)c(Br)c1 [PBDE-99, 2,2′,4,4′,5-pentabromodiphenyl ether]
Rats [9]
  Dose causing hyperactivity and impaired spermatogenesis in offspring: 0.11 µmol/kg
[6]; converted
  Geometric mean concentration in maternal serum: 25 ng/l and 44 pM
  Average concentration in breast milk: 1 ng/l and 1.8 pM
[6]
  Geometric mean concentration in maternal serum: 4.5 ng/g
  Average concentration in breast milk: 0.27 ng/g lw
[8]
  Effect on NCC migration in concentration-response study: concentration-dependent effect

## Nc1ccc(S(=O)(=O)Nc2ncccn2)cc1 [Sulfadiazine]
HEK293 cells; human
  Highest non-cytotoxic conc. in HEK293: 100.0 µM
[10]; mouse
  Highest non-cytotoxic conc. in mESCn: > 50.0 µM
[11]; human
  Concentration for hit finding in NCC (highest non-cytotoxic concentration in the UKN2 test system): 50 µM
[2]; human, in vivo
  Clinical concentration range (average Cmax): 50-110
  Cmax: 200 to 440 µM
Plasma proteins; human
  Degree of protein binding: 50%

## COC1=C2C[C@@H](C)C[C@H](OC)[C@H](O)[C@@H](C)/C=C(\C)[C@H](OC(N)=O)[C@@H](OC)/C=C\C=C(/C)C(=O)NC(=CC1=O)C2=O [Geldanamycin]
[2]
  Clinical conc. (CC; total/maximal plasma concentration): 800 nM
[8]
  Effect on NCC migration in concentration-response study: concentration-dependent effect

## O=C(NC[C@H]1CN(c2ccc(N3CCOCC3=O)cc2)C(=O)O1)c1ccc(Cl)s1 [Rivaroxaban]
[3]
  Free conc. (FCC; free plasma concentration): 41.4 nM
[2]
  Clinical conc. (CC; total/maximal plasma concentration): 689.6 nM
Plasma proteins; PBPK model study, ref Grillo et al. (2012)
  Unbound fraction in plasma: 6%

## CC[C@H](C)[C@@H]1NC(=O)[C@H](Cc2ccc(O)cc2)NC(=O)[C@@H](N)CSSC[C@@H](C(=O)N2CCC[C@H]2C(=O)N[C@@H](CC(C)C)C(=O)NCC(N)=O)NC(=O)[C@H](CC(N)=O)NC(=O)[C@H](CCC(N)=O)NC1=O [Oxytocin]
HEK293 cells; 48 h
  Highest non-cytotoxic conc. in HEK293: > 0.1 µM
[10]; 48 h
  Highest non-cytotoxic conc. in mESCn: > 100.0 µM
[11]; 48 h
  Concentration for hit finding in NCC (highest non-cytotoxic concentration in the UKN2 test system): 0.1 µM
[3]
  Free conc. (FCC; free plasma concentration): 2.0 nM
[2]
  Clinical conc. (CC; total/maximal plasma concentration): 2.0 nM
Plasma proteins; ref Fabian et al. (1969)
  Binding state in plasma: unbound

## CCC[C@H](NC(=O)[C@@H]1[C@H]2CCC[C@H]2CN1C(=O)[C@@H](NC(=O)[C@@H](NC(=O)c1cnccn1)C1CCCCC1)C(C)(C)C)C(=O)C(=O)NC1CC1 [Telaprevir]
[3]
  Free conc. (FCC; free plasma concentration): 1600 nM
[2]
  Clinical conc. (CC; total/maximal plasma concentration): 5100 nM

## N[C@@H](CC(=O)N1CCn2c(nnc2C(F)(F)F)C1)Cc1cc(F)c(F)cc1F [Sitagliptin]
[3]
  Free conc. (FCC; free plasma concentration): 1200 nM
[2]
  Clinical conc. (CC; total/maximal plasma concentration): 1900 nM
Plasma proteins; ref Herman et al. (2006a)
  Binding to plasma proteins: 38%

## C[C@]12CC[C@H](O)CC1=CC[C@@H]1[C@@H]2CC[C@]2(C)C(c3cccnc3)=CC[C@@H]12 [Abiraterone]
HEK293 cells; human
  Highest non-cytotoxic conc. in HEK293: 2.0 µM
[10]; mouse
  Highest non-cytotoxic conc. in mESCn: 0.97 µM
[11]; human
  Concentration for hit finding in NCC (highest non-cytotoxic concentration in the UKN2 test system): 2 µM
[3]
  Free conc. (FCC; free plasma concentration): 7.8 nM
[2]
  Clinical conc. (CC; total/maximal plasma concentration): 647.3 nM
Plasma proteins; ref Gurav et al. (2012)
  Bound to plasma proteins: > 98.8%
[8]
  Effect on NCC migration in concentration-response study: concentration-dependent effect

## Cc1ccc(NC(=O)c2ccc(CN3CCN(C)CC3)cc2)cc1Nc1nccc(-c2cccnc2)n1 [Imatinib]
[11]; human
  Concentration for hit finding in NCC (highest non-cytotoxic concentration in the UKN2 test system): 5 µM
[8]
  Effect on NCC migration in concentration-response study: concentration-dependent effect

## Erythropoietin
[2]
  Clinical conc. (CC; total/maximal plasma concentration): 0.3 nM

## COCCCOc1cc(C[C@@H](C[C@H](N)[C@@H](O)C[C@H](C(=O)NCC(C)(C)C(N)=O)C(C)C)C(C)C)ccc1OC [Aliskiren]
[3]
  Free conc. (FCC; free plasma concentration): 166 nM
[2]
  Clinical conc. (CC; total/maximal plasma concentration): 326.5 nM
Plasma proteins; moderate, ref Vaidyanathan et al. 2008
  Protein binding: 47-51%

## CCCc1nn(C)c2c(=O)[nH]c(-c3cc(S(=O)(=O)N4CCN(C)CC4)ccc3OCC)nc12 [Sildenafil]
[3]
  Free conc. (FCC; free plasma concentration): 11.0 nM
Plasma proteins; ref Purvis et al. (2002)
  Plasma protein binding: approximately 95%

B1: granulocyte colony-stimulating factor (protein, UniProt P09919 31-207, looked up)
Granulocyte …: TPLGPASSLPQSFLLKCLEQVRKIQGDGAALQEKLVSECATYKLCHPEELVLLGHSLGIPWAPLSSCPSQALQLAGCLSQLHSGLFLYQGLLQALEGISPELGPTLDTLQLDVADFATTIWQQMEELGMAPALQPTQGAMPAFASAFQRRAGGVLVASHLQSFLEVSYRVLRHLAQP
[3]; calculated from Laske et al. (2009) data
  Clinically relevant concentration: 25 pg/mL
[2]; 50 healthy controls
  Plasma concentration range: 5 to 80 pg/mL
  Plasma concentration, average: ~ 28 pg/ml
[2]; [12]
  Plasma concentration range: 10 to 40 pg/mL
  Plasma concentration, average: ~ 20 pg/ml
[2]
  Clinical conc. (CC; total/maximal plasma concentration): 0.0013 nM
